Laboratory results published in ChEMBL document CHEMBL4507319 (2021).

Columns and labels:
[1] = system: Tyrosine-protein kinase ABL1 (Homo sapiens), P00519 [H396P]; details: Compound concentration 1000.0 nM
[2] = biological target: Tyrosine-protein kinase ABL1 (Homo sapiens) (UniProt P00519); details: Compound concentration 1000.0 nM
[3] = biological target: 5'-AMP-activated protein kinase catalytic subunit alpha-2 (Homo sapiens, UniProt P54646); details: Compound concentration 1000.0 nM
[4] = biological target: Serine/threonine-protein kinase MRCK gamma (Homo sapiens) (UniProt Q6DT37); details: Compound concentration 1000.0 nM
Chain of Serine/threonine-protein kinase MRCK gamma (Homo sapiens) (Q6DT37 whole entry): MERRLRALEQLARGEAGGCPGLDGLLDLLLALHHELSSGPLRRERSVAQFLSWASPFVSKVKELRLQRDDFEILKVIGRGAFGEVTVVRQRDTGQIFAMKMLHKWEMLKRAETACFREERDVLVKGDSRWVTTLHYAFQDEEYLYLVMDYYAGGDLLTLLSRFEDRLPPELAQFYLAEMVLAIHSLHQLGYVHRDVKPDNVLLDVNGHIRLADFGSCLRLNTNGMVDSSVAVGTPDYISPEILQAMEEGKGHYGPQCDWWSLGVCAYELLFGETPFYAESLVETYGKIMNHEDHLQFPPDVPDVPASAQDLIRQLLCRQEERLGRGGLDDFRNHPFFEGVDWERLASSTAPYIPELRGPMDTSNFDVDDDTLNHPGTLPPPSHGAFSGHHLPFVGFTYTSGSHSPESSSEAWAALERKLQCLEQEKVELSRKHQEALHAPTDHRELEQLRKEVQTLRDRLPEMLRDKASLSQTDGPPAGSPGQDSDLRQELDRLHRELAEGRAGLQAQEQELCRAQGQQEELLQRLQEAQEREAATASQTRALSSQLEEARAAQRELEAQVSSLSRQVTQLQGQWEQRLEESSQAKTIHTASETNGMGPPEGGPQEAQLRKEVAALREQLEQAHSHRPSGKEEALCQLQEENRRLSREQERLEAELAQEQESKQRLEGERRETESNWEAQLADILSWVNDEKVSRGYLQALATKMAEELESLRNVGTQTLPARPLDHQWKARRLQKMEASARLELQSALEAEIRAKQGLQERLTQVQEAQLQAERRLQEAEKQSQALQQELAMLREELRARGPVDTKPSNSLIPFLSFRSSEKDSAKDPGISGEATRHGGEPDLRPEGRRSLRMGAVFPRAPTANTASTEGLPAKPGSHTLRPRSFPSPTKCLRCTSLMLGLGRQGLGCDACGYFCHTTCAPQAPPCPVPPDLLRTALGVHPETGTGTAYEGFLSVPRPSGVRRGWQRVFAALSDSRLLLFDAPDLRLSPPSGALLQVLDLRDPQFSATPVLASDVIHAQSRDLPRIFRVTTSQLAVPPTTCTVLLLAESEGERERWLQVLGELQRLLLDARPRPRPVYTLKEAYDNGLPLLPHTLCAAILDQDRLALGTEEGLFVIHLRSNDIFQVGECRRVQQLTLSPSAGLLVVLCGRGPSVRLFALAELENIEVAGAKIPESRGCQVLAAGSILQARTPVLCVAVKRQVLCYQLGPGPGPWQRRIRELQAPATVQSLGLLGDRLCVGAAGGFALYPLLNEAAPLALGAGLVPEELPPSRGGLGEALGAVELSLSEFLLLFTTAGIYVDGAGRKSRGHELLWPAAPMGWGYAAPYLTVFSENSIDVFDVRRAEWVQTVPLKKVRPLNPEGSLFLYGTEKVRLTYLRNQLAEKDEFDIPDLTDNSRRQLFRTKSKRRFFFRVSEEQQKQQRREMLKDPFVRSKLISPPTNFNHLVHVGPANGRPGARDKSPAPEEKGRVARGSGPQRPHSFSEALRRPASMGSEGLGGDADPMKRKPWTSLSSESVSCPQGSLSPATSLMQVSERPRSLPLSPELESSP

[5] = biological target: T1, Dual specificity tyrosine-phosphorylation-regulated kinase 2 (Homo sapiens) (UniProt Q92630); details: Compound concentration 1000.0 nM
T1 sequence (whole entry): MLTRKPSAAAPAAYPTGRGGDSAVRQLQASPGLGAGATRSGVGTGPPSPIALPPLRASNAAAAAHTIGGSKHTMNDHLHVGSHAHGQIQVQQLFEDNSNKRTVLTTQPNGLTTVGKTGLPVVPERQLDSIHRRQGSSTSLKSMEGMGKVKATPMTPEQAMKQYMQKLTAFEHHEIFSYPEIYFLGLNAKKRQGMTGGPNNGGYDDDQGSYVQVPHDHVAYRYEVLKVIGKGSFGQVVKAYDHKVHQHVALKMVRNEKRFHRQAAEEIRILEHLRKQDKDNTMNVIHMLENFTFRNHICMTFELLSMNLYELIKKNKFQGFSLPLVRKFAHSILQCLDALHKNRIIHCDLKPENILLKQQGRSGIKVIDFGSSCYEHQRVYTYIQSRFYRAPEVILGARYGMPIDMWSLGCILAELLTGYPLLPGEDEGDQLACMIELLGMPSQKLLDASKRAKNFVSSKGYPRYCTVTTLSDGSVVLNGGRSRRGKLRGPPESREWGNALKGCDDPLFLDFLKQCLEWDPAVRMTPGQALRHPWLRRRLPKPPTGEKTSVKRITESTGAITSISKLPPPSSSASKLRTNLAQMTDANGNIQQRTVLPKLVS

[6] = biological target: Tyrosine-protein kinase Fer (Homo sapiens) (UniProt P16591); details: Compound concentration 1000.0 nM
Chain of Tyrosine-protein kinase Fer (Homo sapiens) (P16591 whole entry, looked up): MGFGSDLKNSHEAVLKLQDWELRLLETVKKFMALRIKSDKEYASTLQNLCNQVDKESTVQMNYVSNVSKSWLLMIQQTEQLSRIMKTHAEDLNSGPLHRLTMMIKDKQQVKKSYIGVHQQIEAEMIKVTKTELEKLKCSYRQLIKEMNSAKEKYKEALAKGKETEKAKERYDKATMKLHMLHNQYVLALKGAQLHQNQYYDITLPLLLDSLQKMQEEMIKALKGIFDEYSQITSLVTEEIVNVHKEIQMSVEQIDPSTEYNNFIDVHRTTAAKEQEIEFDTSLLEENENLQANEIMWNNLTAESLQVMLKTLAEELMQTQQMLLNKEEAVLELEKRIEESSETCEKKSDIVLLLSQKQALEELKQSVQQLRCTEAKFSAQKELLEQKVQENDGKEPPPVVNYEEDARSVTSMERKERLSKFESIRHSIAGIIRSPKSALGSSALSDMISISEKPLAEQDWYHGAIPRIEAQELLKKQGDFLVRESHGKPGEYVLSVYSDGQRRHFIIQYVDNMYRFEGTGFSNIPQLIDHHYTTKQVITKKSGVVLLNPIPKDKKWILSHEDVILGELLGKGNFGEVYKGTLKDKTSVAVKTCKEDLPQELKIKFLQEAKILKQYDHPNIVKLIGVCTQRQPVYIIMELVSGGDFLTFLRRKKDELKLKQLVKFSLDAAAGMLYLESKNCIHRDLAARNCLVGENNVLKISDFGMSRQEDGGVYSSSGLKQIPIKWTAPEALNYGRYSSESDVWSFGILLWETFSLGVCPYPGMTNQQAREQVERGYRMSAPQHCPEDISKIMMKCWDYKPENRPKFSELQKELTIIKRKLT

[7] = biological target: T2, Tyrosine-protein kinase Mer (Homo sapiens) (UniProt Q12866); details: Compound concentration 1000.0 nM
T2 sequence (whole entry): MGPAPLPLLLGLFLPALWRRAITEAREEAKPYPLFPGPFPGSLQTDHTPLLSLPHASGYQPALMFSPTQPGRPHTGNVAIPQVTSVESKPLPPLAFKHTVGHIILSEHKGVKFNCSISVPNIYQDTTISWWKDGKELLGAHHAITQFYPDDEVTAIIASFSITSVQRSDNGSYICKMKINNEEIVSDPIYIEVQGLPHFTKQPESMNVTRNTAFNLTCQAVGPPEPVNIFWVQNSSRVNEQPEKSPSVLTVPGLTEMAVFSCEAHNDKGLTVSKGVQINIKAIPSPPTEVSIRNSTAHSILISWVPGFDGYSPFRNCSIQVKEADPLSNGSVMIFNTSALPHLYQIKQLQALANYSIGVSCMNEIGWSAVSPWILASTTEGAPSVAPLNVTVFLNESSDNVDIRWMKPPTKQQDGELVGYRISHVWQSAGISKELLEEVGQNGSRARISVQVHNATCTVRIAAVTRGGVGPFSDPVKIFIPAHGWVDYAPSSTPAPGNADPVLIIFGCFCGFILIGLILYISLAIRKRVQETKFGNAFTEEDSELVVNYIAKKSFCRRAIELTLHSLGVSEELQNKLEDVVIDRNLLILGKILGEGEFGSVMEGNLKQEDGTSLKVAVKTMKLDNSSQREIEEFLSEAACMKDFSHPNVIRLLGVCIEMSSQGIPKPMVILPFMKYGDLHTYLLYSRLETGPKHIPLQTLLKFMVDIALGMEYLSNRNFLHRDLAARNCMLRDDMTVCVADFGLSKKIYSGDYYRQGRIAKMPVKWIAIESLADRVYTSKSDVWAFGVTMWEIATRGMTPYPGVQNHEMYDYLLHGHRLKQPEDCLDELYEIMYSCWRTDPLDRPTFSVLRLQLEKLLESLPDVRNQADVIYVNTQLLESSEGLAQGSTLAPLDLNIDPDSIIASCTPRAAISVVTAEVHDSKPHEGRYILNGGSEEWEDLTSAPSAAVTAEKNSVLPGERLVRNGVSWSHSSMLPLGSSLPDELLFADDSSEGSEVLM

[8] = biological target: Serine/threonine-protein kinase NIM1 (Homo sapiens) (UniProt Q8IY84); details: Compound concentration 1000.0 nM
[9] = biological target: Mitogen-activated protein kinase 11 (Homo sapiens) (UniProt Q15759); details: Compound concentration 1000.0 nM
[10] = biological target: T3, Mitogen-activated protein kinase 12 (Homo sapiens) (UniProt P53778); details: Compound concentration 1000.0 nM
T3 sequence (whole entry): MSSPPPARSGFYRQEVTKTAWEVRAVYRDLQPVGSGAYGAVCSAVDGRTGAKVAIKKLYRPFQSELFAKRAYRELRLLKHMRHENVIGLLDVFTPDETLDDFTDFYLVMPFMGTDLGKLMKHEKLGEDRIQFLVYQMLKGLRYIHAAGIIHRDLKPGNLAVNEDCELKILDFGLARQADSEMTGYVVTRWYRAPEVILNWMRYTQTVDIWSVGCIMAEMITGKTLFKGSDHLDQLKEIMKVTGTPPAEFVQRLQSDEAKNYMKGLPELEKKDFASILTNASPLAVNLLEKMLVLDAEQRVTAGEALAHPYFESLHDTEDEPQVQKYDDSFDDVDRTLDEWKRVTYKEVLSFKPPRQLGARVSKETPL

[11] = biological target: Platelet-derived growth factor receptor beta (Homo sapiens) (UniProt P09619); details: Compound concentration 1000.0 nM
Chain of Platelet-derived growth factor receptor beta (Homo sapiens) (P09619 whole entry, the tested form may be a part): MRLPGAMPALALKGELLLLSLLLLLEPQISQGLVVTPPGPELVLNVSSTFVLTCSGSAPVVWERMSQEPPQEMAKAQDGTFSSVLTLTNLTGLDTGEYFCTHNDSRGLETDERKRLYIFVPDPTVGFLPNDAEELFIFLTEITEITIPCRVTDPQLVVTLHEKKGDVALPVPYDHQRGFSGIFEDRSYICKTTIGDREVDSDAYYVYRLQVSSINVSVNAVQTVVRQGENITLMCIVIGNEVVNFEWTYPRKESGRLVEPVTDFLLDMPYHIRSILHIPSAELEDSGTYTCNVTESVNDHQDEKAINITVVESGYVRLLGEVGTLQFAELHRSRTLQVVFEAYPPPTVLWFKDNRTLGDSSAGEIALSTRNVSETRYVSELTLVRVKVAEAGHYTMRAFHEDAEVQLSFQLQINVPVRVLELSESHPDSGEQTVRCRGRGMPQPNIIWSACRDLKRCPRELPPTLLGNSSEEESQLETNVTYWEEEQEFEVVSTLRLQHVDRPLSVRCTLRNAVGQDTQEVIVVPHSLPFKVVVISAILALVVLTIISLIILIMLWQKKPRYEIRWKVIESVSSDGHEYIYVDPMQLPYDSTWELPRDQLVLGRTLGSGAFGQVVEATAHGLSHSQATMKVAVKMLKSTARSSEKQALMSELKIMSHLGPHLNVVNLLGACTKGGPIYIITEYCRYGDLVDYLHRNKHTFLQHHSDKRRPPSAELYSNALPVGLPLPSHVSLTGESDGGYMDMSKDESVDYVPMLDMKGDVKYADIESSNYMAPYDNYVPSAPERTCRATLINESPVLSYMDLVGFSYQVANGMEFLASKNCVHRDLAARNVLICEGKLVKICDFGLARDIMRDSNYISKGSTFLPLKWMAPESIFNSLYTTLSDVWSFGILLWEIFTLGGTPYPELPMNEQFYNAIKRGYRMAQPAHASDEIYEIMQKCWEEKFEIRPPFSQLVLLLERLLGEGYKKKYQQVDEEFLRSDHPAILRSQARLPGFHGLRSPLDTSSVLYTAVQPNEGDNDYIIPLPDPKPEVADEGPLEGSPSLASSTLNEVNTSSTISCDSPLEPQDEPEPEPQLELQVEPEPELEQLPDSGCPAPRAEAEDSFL

[12] = biological target: Phosphatidylinositol 4-phosphate 3-kinase C2 domain-containing subunit beta (Homo sapiens) (UniProt O00750); details: Compound concentration 1000.0 nM
[13] = biological target: Serine/threonine-protein kinase pim-3 (Homo sapiens) (UniProt Q86V86); details: Compound concentration 1000.0 nM
[14] = biological target: Non-receptor tyrosine-protein kinase TNK1 (Homo sapiens) (UniProt Q13470); details: Compound concentration 1000.0 nM
[15] = biological target: Serine/threonine-protein kinase TNNI3K (Homo sapiens) (UniProt Q59H18); details: Compound concentration 1000.0 nM
[16] = biological target: D(1B) dopamine receptor (Homo sapiens) (UniProt P21918); details: Compound concentration 10.0 uM
Chain of D(1B) dopamine receptor (Homo sapiens) (P21918 whole entry): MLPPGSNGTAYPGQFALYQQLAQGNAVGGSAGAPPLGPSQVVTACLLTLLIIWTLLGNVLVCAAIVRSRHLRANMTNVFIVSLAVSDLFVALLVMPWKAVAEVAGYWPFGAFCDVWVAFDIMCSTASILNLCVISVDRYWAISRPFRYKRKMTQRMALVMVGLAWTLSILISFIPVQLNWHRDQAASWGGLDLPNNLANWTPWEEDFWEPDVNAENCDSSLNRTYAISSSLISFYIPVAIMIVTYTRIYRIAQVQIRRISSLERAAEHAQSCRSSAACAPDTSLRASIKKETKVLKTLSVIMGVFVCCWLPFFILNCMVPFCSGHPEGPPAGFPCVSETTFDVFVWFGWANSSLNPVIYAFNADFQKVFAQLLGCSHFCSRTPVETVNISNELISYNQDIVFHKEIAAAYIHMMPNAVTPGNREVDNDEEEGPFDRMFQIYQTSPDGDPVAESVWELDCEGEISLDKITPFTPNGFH

Chain of 5'-AMP-activated protein kinase catalytic subunit alpha-2 (P54646 whole entry, looked up): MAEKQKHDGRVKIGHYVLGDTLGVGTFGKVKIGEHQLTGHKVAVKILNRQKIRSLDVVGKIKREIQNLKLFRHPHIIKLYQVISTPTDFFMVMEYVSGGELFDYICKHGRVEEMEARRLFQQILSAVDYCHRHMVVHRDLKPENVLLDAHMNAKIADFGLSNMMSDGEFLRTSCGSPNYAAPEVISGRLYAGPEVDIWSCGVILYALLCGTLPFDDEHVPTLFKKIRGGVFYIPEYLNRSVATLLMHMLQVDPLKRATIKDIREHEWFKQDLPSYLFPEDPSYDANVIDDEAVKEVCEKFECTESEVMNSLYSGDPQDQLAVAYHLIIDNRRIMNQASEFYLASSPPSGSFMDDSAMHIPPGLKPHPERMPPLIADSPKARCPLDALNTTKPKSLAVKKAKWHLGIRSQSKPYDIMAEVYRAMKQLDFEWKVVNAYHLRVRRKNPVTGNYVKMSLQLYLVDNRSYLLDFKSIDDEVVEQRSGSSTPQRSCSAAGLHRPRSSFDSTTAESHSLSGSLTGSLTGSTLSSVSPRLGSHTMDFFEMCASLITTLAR

Row | Compound | residual activity [1] [%] | residual activity [2] [%] | residual activity [3] [%] | residual activity [4] [%] | residual activity [5] [%] | residual activity [6] [%] | residual activity [7] [%] | residual activity [8] [%] | residual activity [9] [%] | residual activity [10] [%] | residual activity [11] [%] | residual activity [12] [%] | residual activity [13] [%] | residual activity [14] [%] | residual activity [15] [%] | inhibition [16] [%]
1 | CCc1ccccc1C(=O)Nc1n[nH]c2c(C)c(F)c(C3C(C#N)=C(C)N(C)C(C)=C3C#N)cc12 [BAY-3827] | 95 | 88 | 0 | 93 | 82 | 90 | 80 | 100 | 91 | 76 | 82 | 100 | 100 | 100 | 87 | 8.47
2 | CC1=C(C#N)C(c2ccc3c(c2)c(NC(=O)c2ccccc2C)nn3C)C(C#N)=C(C)N1 [BAY-974] | 100 | 66 | 99 | 92 | 100 | 88 | 100 | 86 | 100 | 68 | 94 | 76 | 100 | 76 | 96 | 14.6
